We go through 3 compounds from patent publication US9993452B2, “Compositions and methods for treatment of inflammation” (Vireo Systems, Inc., priority 2014, dated 2018).

Series [1] concerns vancomycin resistant Enterococcus faecium (“VRE”). The conditions noted are these: addition to a growth medium; cited from earlier work.
Series [2] deals with TNF-α mRNA. Put plainly: TNF-α mRNA expression in human T cell line Jurkat clone E6-1 (real-time RT-PCR). It is filed as cell-based. How it is done: (§1) The mouse macrophage cell line, RAW 264.7 (American Tissue Type Culture Collection (ATCC); Manassas, Va.), was cultured in Dulbucco's modified Eagle's medium (DMEM; ATCC) supplemented with 10% heat inactivated fetal calf serum […] (Invitrogen; Carlsbad, Calif.), 100 μg/ml streptomycin and 100 U/ml penicillin (Invitrogen), and 2 mM L-glutamine (Invitrogen). The human T cell line, Jurkat clone E6-1 (ATCC) was cultured in RPMI-1640 medium (Invitrogen) supplemented as described above. The human monocyte cell line, THP-1 (ATCC) was cultured much like the Jurkat cultures plus the addition of 1 mM sodium pyruvate (Gibco-Invitrogen). THP-1 cells were stimulated with 200 nM of phorbol 12-myristate 13-acetate (PMA; Sigma-Aldrich, St. Louis, Mo.) for 48 hours to differentiate the cells into macrophage-like cells. Cells were then washed three times every 24 hours with fresh medium.
(§2) Dose response experiments were performed following exposure of the RAW 264.7, Jurkat, and THP-1 cells to varying doses of creatinine HCl ([…]; Sigma-Aldrich). Control cultures contained no creatinine HCl, only growth medium. A dose of 10 mM creatinine HCl was chosen for use in these studies. The 10 mM concentration is physiologically relevant to individuals supplementing with 5 grams of creatine for their regimen and then converted into creatinine.
(§3) RAW, Jurkat, and THP-1 cells were treated in 6-well plates at 80-90% confluent (4.14×10^6 cells/ml, 2.6×10^7 cells/ml, and 5.26×10^5 cells/ml, respectively). All cells were lysed in 1 ml of Trizol (Invitrogen). After homogenization, chloroform was added to samples and nucleic acids extracted per the manufacturer's instructions. Nucleic acids were precipitated with isopropyl alcohol (Fisher, Pittsburgh, Pa.). Following centrifugation, the resulting pellets were washed with 75% ethanol and air dried. RNA was re-suspended in 50 μl of UltraPure distilled water (Invitrogen). Residual DNA was removed from the samples by treatment with RQ1 DNase (Promega, Madison, Wis.) at 37° C. for 1 hour per the manufacturer's protocol. Samples were extracted with phenol:chloroform:[…] alcohol (25:24:1) (Invitrogen) and the RNA was precipitated with 1/10 volume of 3M sodium acetate (pH=5.2) and 3 volumes of 100% ethanol. Samples were frozen at […] for a minimum of 2 hours. After centrifugation, the samples were washed with 75% ethanol, air dried, and resuspended in 20 μl of UltraPure distilled water (Invitrogen) and stored at −80° C. until time of use, RNA was quantified using a NanoDrop-1000 Spectrophotometer with the program ND-1000 V3.8.1 (Thermo Fisher Scientific, Wilmington, Del.).
(§4) Reverse transcription (Improm-II Reverse Transcription System, Promega) followed by real-time PCR analysis was performed in 20 μL volumes containing 1 μl of cDNA corresponding to 40 ng of DNase-treated RNA in the RT reaction, gene specific internal primers (0.5 μM of each primer), and 1× SsoFast EvaGreen Supermix (Bio-Rad, Hercules, Calif.). The primers were synthesized by Integrated DNA Technologies (IDT, Coralville, Iowa) and have 100% sequence homology to the […] or human genome. The primer sequences are listed below in Table 1.
(§5) The PCR was performed using the following conditions: 95° C. for 30 sec, 40 cycles of 95° C. for 5 sec, and 57° C. for 5 sec using a CFX96 Real-Time Detection System (Bio-Rad), GAPDH was used as a housekeeping gene to normalize mRNA levels between samples. Data was analyzed using the Bio-Rad CFX Manager V1.6.541.1028 software (Bio-Rad). The calibrator in the experiments was the sample obtained from control-treated cells. Copy numbers of targeted mRNAs were expressed as ratios of GAPDH mRNA levels. Relative quantitation was determined by the comparative CT method (ΔΔCT method) in which the formula is expressed as: 2^−ΔΔCT(1).
(§6) RT-PCR data was analyzed by two-way analysis of variance (ANOVA) with a Bonferroni's post-test. P values≤0.05 were considered statistically significant. […]

For another series, the system named is TLR-4. The conditions noted are these: mouse macrophages; cited from earlier work.
For another series, the system named is TLR-2. The conditions noted are these: mouse macrophages; cited from earlier work.
Series [3] deals with TNF-α mRNA. Put plainly: TNF-α mRNA expression in mouse macrophage cell line RAW 264.7 (real-time RT-PCR). The series is classed as cell-based. As to the method: as §1, §2, §3, §4, §5, §6
The next series concerns fungi. Particulars: cited from earlier work.
For the next series, the system named is TNF-α protein. Briefly: Immunohistochemical staining of TNF-α protein expression in mouse macrophage cells (RAW 264.7). It is filed as cell-based. Particulars: 10 mM. How it is done:
as §1
RAW cells were incubated with or without 10 mM creatinine (Sigma-Aldrich) for 24 or 48 hours. Staining was performed on cytospins which were fixed in cold acetone, air-dried, and rehydrated in phosphate buffered saline (PBS). Blocking was performed at room temperature for 20 minutes, followed by incubation with purified rat anti-mouse TNF-α antibody (BD Biosciences, San Diego, Calif.) overnight. […]

In another series the test system is TLR-7. The conditions noted are these: mouse macrophages; cited from earlier work.
Series [4] deals with TNF-α mRNA. Briefly: TNF-α mRNA expression in human macrophage cell line THP-1 (real-time RT-PCR). It is filed as cell-based. How it is done: as §1, §2
RAW, Jurkat, and THP-1 cells were treated in 6-well plates at 80-90% confluent (4.14×10^6 cells/ml, 2.6×10^7 cells/ml, and 5.26×10^5 cells/ml, respectively). All cells were lysed in 1 ml of Trizol (Invitrogen). After homogenization, chloroform was added to samples and nucleic acids extracted per the manufacturer's instructions. Nucleic acids were precipitated with isopropyl alcohol (Fisher, Pittsburgh, Pa.). Following centrifugation, the resulting pellets were washed with 75% ethanol and air dried. […] After centrifugation, the samples were washed with 75% ethanol, air dried, and resuspended in 20 μl of UltraPure distilled water (Invitrogen) and stored at −80° C. until time of use, RNA was quantified using a NanoDrop-1000 Spectrophotometer with the program ND-1000 V3.8.1 (Thermo Fisher Scientific, Wilmington, Del.). […]
The PCR was performed using the following conditions: 95° C. for 30 sec, 40 cycles of 95° C. for 5 sec, and 57° C. for 5 sec using a CFX96 Real-Time Detection System (Bio-Rad), GAPDH was used as a housekeeping gene to normalize mRNA levels between samples. Data was analyzed using the Bio-Rad CFX Manager V1.6.541.1028 software (Bio-Rad). […] Copy numbers of targeted mRNAs were expressed as ratios of GAPDH mRNA levels. Relative quantitation was determined by the comparative CT method (ΔΔCT method) in which the formula is expressed as: 2^−ΔΔCT(1).
RT-PCR data was analyzed by two-way analysis of variance (ANOVA) with a Bonferroni's post-test. […]

In another series the test system is mouse macrophages. Particulars: cited from earlier work.
Series [5] concerns drug resistant Staphylococcus aureus (“MRSA”). Particulars: addition to a growth medium; cited from earlier work.
A further series relates to TLR-3. Particulars: mouse macrophages; cited from earlier work.
Series [6] concerns Gram negative and Gram positive bacteria. Particulars: addition to a growth medium; cited from earlier work.
For series [7] the following is noted: rats, acute or chronic inflammation induced by inflammatory agents, different doses; cited from earlier work.

In the case of `CN1CC(=O)N=C1N.Cl` [creatinine HCl, creatinine hydrochloride], the “bacteria in growth medium” value in [1], in [5] and in series [6] was “decreased” each time. For the same compound, the “TNF-α mRNA levels, of the control level” value in the series with TNF-α mRNA [2] (10 mM, 20 minutes post-exposure, Jurkat) came out at 25%. In addition, the “TNF-α mRNA levels” value with TNF-α mRNA [2] (10 mM, 30 minutes post-exposure, Jurkat) was “began increasing”; in the series with TNF-α mRNA [2] (10 mM, 60 minutes post-exposure, Jurkat), “control levels”; with TNF-α mRNA [3] (10 mM, 40 minutes post-exposure, RAW 264.7), “began to increase”; with TNF-α mRNA [4] (10 mM, 20 minutes post-exposure, THP-1), “remained below those of control-treated cells”. For the same compound, the “TNF-α mRNA levels compared to the levels of control” value in the series with TNF-α mRNA [2] (10 mM, within 10 minutes of exposure, Jurkat) is on record as 50%. Further, the “reduction of mRNA levels in human T cells” value in the series with TNF-α mRNA [2] (about 10 mM, 20 minutes post-treatment) was at most 75%. For the same compound, the TLR-4 transcript levels entry with TLR-4 is listed as “reduced”. In addition, the TLR-2 transcript levels entry in the series on TLR-2 is given as “reduced”. In addition, the “TNF-α mRNA as compared to the control (100%)” value with TNF-α mRNA [3] (10 mM, 10 minutes post-exposure, RAW 264.7) worked out at 28%; with TNF-α mRNA [3] (10 mM, 20 minutes post-exposure, RAW 264.7) it was 13%; in the series on TNF-α mRNA [3] (10 mM, 60 minutes post-exposure, RAW 264.7) it was 47%. Further, the “decrease of TNF-α mRNA expression in mouse macrophages” value with TNF-α mRNA [3] (about 10 mM, about 10 minutes post-treatment) was at least 72%. The “reduction of TNF-α mRNA expression in mouse macrophages” value with TNF-α mRNA [3] (about 10 mM, about 20 minutes post-treatment) is at most 87%. Besides, the growth of fungi result in the series on fungi was “does not affect”. Moreover, the “TNF-α protein signal (immunohistochemical staining) compared to control-treated cells” value in the series with TNF-α protein (24 hours incubation) and in the series with TNF-α protein (48 hours incubation) was “lower signals” in each case. Also, the TLR-7 transcript levels result with TLR-7 was “reduced”. For the same compound, the “TNF-α mRNA levels, of the control levels” value in the series with TNF-α mRNA [4] (10 mM, 10 minutes post-exposure, THP-1) is listed as 41%; in the series with TNF-α mRNA [4] (10 mM, 60 minutes post-exposure, THP-1), 50%. Moreover, in the series with mouse macrophages, the cell death entry was “No alterations”. Also, the TLR-3 transcript levels result in the series on TLR-3 was “reduced”.
For the compound `CN1CC(=O)N=C1N` [creatinine], the Edema result in series [7] is on record as “decreased”.
As for lipopolysaccharide [reference compound], the “TNF-α mRNA expression” value was “significant increase” in the series with TNF-α mRNA [2] (positive control, Jurkat, not shown in graphs); “significant increase” with TNF-α mRNA [3] (positive control, RAW 264.7, not shown in graphs); “significant increase” in the series on TNF-α mRNA [4] (positive control, THP-1, not shown in graphs).
